The test system of data set [1] is dysplastic lesions. As to conditions: three months, cited from earlier work.
The subject of data set [2] is P13K. The following applies: conclusion of Gustafson et al; cited from earlier work.
Data set [3] is classed as physicochemical. An excerpt:
In certain embodiments of the invention, the dry powder compositions may comprise myo-inositol (cis-1,2,3,5-trans-4,6-cyclohexanehexyl). Dry powder compositions comprising myo-inositol are disclosed in the Sievers et al U.S. Patent Application No. 2008/0035143 A1, incorporated herein in its entirety, although other myo-inositol dry powder compositions, including those generally and/or specifically disclosed herein are also suitable for use in embodiments of the present invention. Dry powder compositions comprising myo-inositol may optionally further include one or more of amino acids, for example, arginine, alanine, histidine, leucine, and/or methionine, surfactants, for example, palmitic acid, stearic acid, Tween 20, Tween 80, and/or Pluronic F68, stabilizers, buffers, for example, tricine, sodium or potassium phosphate, sodium acetate, and/or sodium citrate, metal chelating agents, for example EDTA and/or DTPA, gelatin, albumin, or the like. In one specific embodiment, myo-inositol and leucine are employed in a 98.5:1.5 weight ratio. Advantageously, myo-inositol dry powder compositions containing one or more additional components are provided using the CAN-BD process. It has been discovered that when pure myo-inositol is processed by the CAN-BD process at a temperature of about 50° C., a crystal polymorph which is different from the common crystal polymorph of native myo-inositol forms. This polymorph has an exothermic transition with onset of 110-130° C. and appears to be thermally stable at room temperature for only short periods of time (less than 2 weeks), but remains for longer periods of time when stored at temperatures of 2-8° C. (for at least 3 months and up to 5 months), and is removed by annealing at 115° C. or above. The moisture content of this new polymorph is very low (0.1% water) and identical to the moisture content of native myo-inositol. The X-ray diffraction pattern of this polymorph differs from those of native myo-inositol and a previously disclosed myo-inositol dihydrate (Bonnet 2006). […]

Consider `O[C@H]1[C@H](O)[C@@H](O)[C@H](O)[C@@H](O)[C@H]1O` [myo-inositol, cis-1,2,3,5-trans-4,6-cyclohexanehexyl], for which, in data set [1] (oral administration to the gastrointestinal tract), the maximum tolerated dose is 18 grams per day. For the same molecule, in data set [1] (oral, mild to moderate airway dysplasia), the “regression in dysplastic lesions” value was “significant regression”. Also, the P13K inhibition entry in data set [2] was “P13K inhibitor”.

In the case of `O[C@H]1[C@H](O)[C@@H](O)[C@H](O)[C@@H](O)[C@H]1O` [crystal polymorph, myo-inositol], the “period of thermal stability” value in data set [3] is “less than 2 weeks”. The moisture content in data set [3] (new polymorph, identical to native myo-inositol) worked out at 0.1 % water. Besides, the “period for which the polymorph remains” value in data set [3] (stored at 2-8° C.) is “at least 3 months”.

Source of the values: US9895321B2, “Vaccines, methods of administering vaccines, methods and products for treating and/or delaying onset of dysplastic lesions, and wafers for oral administration” (AKTIV-DRY LLC, priority 2010, dated 2018).
